Assays:
Test in all cases: relative viability (nuclei count vs DMSO), 5 days (fraction); higher = more cells survive
NCI-H1734 = test system: NCI-H1734
Method in brief: (§1)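 Relative viability divides the nuclei count in treated wells by that in vehicle wells. Lung cancer cell lines were seeded in 1536-well plates, dosed by pin tool the next day, and fixed and stained after 5 days in one step with final 0.05% Triton X-100, 1% formaldehyde and 1 ug/ml Hoechst. Dosing was a single drug or a fixed anchor-drug dose plus five library-drug doses (not always all listed) in √10 steps, and values are medians of duplicate plates imaged at 4×.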

SW 1573 = test system: SW 1573
Method in brief: as §1

NCI-H1650 = test system: NCI-H1650
Method in brief: as §1

NCI-H2342 = test system: NCI-H2342
Method in brief: as §1

PC-3 [JPC-3] = test system: PC-3 [JPC-3]
Method in brief: as §1

CAL-12T = test system: CAL-12T
Method in brief: as §1

NCI-H661 = test system: NCI-H661
Method in brief: as §1

NCI-H1563 = test system: NCI-H1563
Method in brief: as §1

COR-L23 = test system: COR-L23
Method in brief: as §1

HCC-827 = test system: HCC-827
Method in brief: as §1

LK-2 = test system: LK-2
Method in brief: as §1

NCI-H520 = test system: NCI-H520
Method in brief: as §1

NCI-H2405 = test system: NCI-H2405
Method in brief: as §1

PC-14 = test system: PC-14
Method in brief: as §1

NCI-H1355 = test system: NCI-H1355
Method in brief: as §1

EKVX = test system: EKVX
Method in brief: as §1

RERF-LC-KJ = test system: RERF-LC-KJ
Method in brief: as §1

H3255 = test system: H3255
Method in brief: as §1

NCI-H2228 = test system: NCI-H2228
Method in brief: as §1

NCI-H1437 = test system: NCI-H1437
Method in brief: as §1

HCC-15 = test system: HCC-15
Method in brief: as §1

NCI-H322M = test system: NCI-H322M
Method in brief: as §1

With NC(=O)Nc1cc(-c2cccc(F)c2)sc1C(=O)N[C@H]1CCCNC1 [AZD7762] + Nc1nc2[nH]cc(CCc3ccc(C(=O)N[C@@H](CCC(=O)O)C(=O)O)cc3)c2c(=O)[nH]1 [Pemetrexed] (partner 0.2 µM) as the molecule, how does the relative viability (NCI-H1734; first compound 0.01 µM) read?
Its relative viability is 0.398.

What about the relative viability (NCI-H1734; first compound 0.03162 µM) of the same molecule?
Its relative viability is 0.353.

What about the relative viability (NCI-H1734; first compound 0.1 µM) of the same molecule?
Its relative viability is 0.334.

And the relative viability (NCI-H1734; first compound 0.3162 µM)?
The relative viability was 0.303.

And the relative viability (NCI-H1734; first compound 1 µM)?
The relative viability was 0.28.

What about the relative viability (SW 1573; first compound 0.01 µM) of the same molecule?
The relative viability was 0.796.

And the relative viability (SW 1573; first compound 0.03162 µM)?
Its relative viability is 0.778.

What about the relative viability (SW 1573; first compound 0.1 µM) of the same molecule?
The relative viability was 0.717.

And the relative viability (SW 1573; first compound 0.3162 µM)?
Its relative viability is 0.604.

And the relative viability (SW 1573; first compound 1 µM)?
Its relative viability is 0.272.

And the relative viability (NCI-H1650; first compound 0.01 µM)?
Its relative viability is 0.333.

And the relative viability (NCI-H1650; first compound 0.03162 µM)?
The relative viability was 0.331.

And the relative viability (NCI-H1650; first compound 0.1 µM)?
Its relative viability is 0.296.

And the relative viability (NCI-H1650; first compound 0.3162 µM)?
Its relative viability is 0.252.

And the relative viability (NCI-H1650; first compound 1 µM)?
Its relative viability is 0.19.

What about the relative viability (NCI-H2342; first compound 0.01 µM) of the same molecule?
Its relative viability is 0.784.

And the relative viability (NCI-H2342; first compound 0.03162 µM)?
The relative viability was 0.797.

What about the relative viability (NCI-H2342; first compound 0.1 µM) of the same molecule?
Its relative viability is 0.78.

What about the relative viability (NCI-H2342; first compound 0.3162 µM) of the same molecule?
Its relative viability is 0.755.

And the relative viability (NCI-H2342; first compound 1 µM)?
The relative viability was 0.669.

And the relative viability (PC-3 [JPC-3]; first compound 0.01 µM)?
Its relative viability is 0.626.

And the relative viability (PC-3 [JPC-3]; first compound 0.03162 µM)?
The relative viability was 1.08.

What about the relative viability (PC-3 [JPC-3]; first compound 0.1 µM) of the same molecule?
Its relative viability is 1.12.

What about the relative viability (PC-3 [JPC-3]; first compound 0.3162 µM) of the same molecule?
The relative viability was 0.859.

What about the relative viability (PC-3 [JPC-3]; first compound 1 µM) of the same molecule?
The relative viability was 0.688.

What about the relative viability (CAL-12T; first compound 0.01 µM) of the same molecule?
The relative viability was 1.16.

What about the relative viability (CAL-12T; first compound 0.03162 µM) of the same molecule?
The relative viability was 0.981.

What about the relative viability (CAL-12T; first compound 0.1 µM) of the same molecule?
The relative viability was 1.09.

What about the relative viability (CAL-12T; first compound 0.3162 µM) of the same molecule?
Its relative viability is 0.612.

And the relative viability (CAL-12T; first compound 1 µM)?
The relative viability was 0.226.

What about the relative viability (NCI-H661; first compound 0.01 µM) of the same molecule?
The relative viability was 0.935.

What about the relative viability (NCI-H661; first compound 0.03162 µM) of the same molecule?
Its relative viability is 0.739.

What about the relative viability (NCI-H661; first compound 0.1 µM) of the same molecule?
The relative viability was 0.597.

And the relative viability (NCI-H661; first compound 0.3162 µM)?
Its relative viability is 0.49.

And the relative viability (NCI-H661; first compound 1 µM)?
Its relative viability is 0.426.

And the relative viability (NCI-H1563; first compound 0.01 µM)?
Its relative viability is 0.853.

And the relative viability (NCI-H1563; first compound 0.03162 µM)?
The relative viability was 0.997.

And the relative viability (NCI-H1563; first compound 0.1 µM)?
Its relative viability is 0.84.

What about the relative viability (NCI-H1563; first compound 0.3162 µM) of the same molecule?
The relative viability was 0.693.

What about the relative viability (NCI-H1563; first compound 1 µM) of the same molecule?
The relative viability was 0.765.

And the relative viability (COR-L23; first compound 0.01 µM)?
Its relative viability is 0.191.

What about the relative viability (COR-L23; first compound 0.03162 µM) of the same molecule?
The relative viability was 0.185.

What about the relative viability (COR-L23; first compound 0.1 µM) of the same molecule?
Its relative viability is 0.181.

And the relative viability (COR-L23; first compound 0.3162 µM)?
Its relative viability is 0.168.

What about the relative viability (COR-L23; first compound 1 µM) of the same molecule?
The relative viability was 0.131.

And the relative viability (HCC-827; first compound 0.01 µM)?
The relative viability was 0.301.

What about the relative viability (HCC-827; first compound 0.03162 µM) of the same molecule?
Its relative viability is 0.257.

And the relative viability (HCC-827; first compound 0.1 µM)?
The relative viability was 0.211.

What about the relative viability (HCC-827; first compound 0.3162 µM) of the same molecule?
Its relative viability is 0.192.

What about the relative viability (HCC-827; first compound 1 µM) of the same molecule?
Its relative viability is 0.148.

What about the relative viability (LK-2; first compound 0.01 µM) of the same molecule?
The relative viability was 0.316.

What about the relative viability (LK-2; first compound 0.03162 µM) of the same molecule?
Its relative viability is 0.358.

And the relative viability (LK-2; first compound 0.1 µM)?
The relative viability was 0.274.

And the relative viability (LK-2; first compound 0.3162 µM)?
Its relative viability is 0.214.

And the relative viability (LK-2; first compound 1 µM)?
Its relative viability is 0.169.

And the relative viability (NCI-H520; first compound 0.01 µM)?
The relative viability was 0.761.

What about the relative viability (NCI-H520; first compound 0.03162 µM) of the same molecule?
The relative viability was 0.458.

What about the relative viability (NCI-H520; first compound 0.1 µM) of the same molecule?
The relative viability was 0.421.

What about the relative viability (NCI-H520; first compound 0.3162 µM) of the same molecule?
Its relative viability is 0.175.

And the relative viability (NCI-H520; first compound 1 µM)?
The relative viability was 0.17.

What about the relative viability (NCI-H2405; first compound 0.01 µM) of the same molecule?
Its relative viability is 0.998.

What about the relative viability (NCI-H2405; first compound 0.03162 µM) of the same molecule?
The relative viability was 1.25.

And the relative viability (NCI-H2405; first compound 0.1 µM)?
The relative viability was 0.927.

What about the relative viability (NCI-H2405; first compound 0.3162 µM) of the same molecule?
The relative viability was 1.

What about the relative viability (NCI-H2405; first compound 1 µM) of the same molecule?
The relative viability was 0.466.

What about the relative viability (PC-14; first compound 0.01 µM) of the same molecule?
Its relative viability is 0.133.

And the relative viability (PC-14; first compound 0.03162 µM)?
Its relative viability is 0.0943.

And the relative viability (PC-14; first compound 0.1 µM)?
Its relative viability is 0.0891.

What about the relative viability (PC-14; first compound 0.3162 µM) of the same molecule?
Its relative viability is 0.0706.

What about the relative viability (PC-14; first compound 1 µM) of the same molecule?
Its relative viability is 0.0517.

What about the relative viability (NCI-H1355; first compound 0.01 µM) of the same molecule?
The relative viability was 1.07.

What about the relative viability (NCI-H1355; first compound 0.03162 µM) of the same molecule?
The relative viability was 1.03.

And the relative viability (NCI-H1355; first compound 0.1 µM)?
The relative viability was 1.08.

And the relative viability (NCI-H1355; first compound 0.3162 µM)?
Its relative viability is 0.708.

What about the relative viability (NCI-H1355; first compound 1 µM) of the same molecule?
The relative viability was 0.709.

What about the relative viability (EKVX; first compound 0.01 µM) of the same molecule?
The relative viability was 0.394.

What about the relative viability (EKVX; first compound 0.03162 µM) of the same molecule?
Its relative viability is 0.346.

And the relative viability (EKVX; first compound 0.1 µM)?
The relative viability was 0.248.

And the relative viability (EKVX; first compound 0.3162 µM)?
The relative viability was 0.208.

What about the relative viability (EKVX; first compound 1 µM) of the same molecule?
The relative viability was 0.152.

What about the relative viability (RERF-LC-KJ; first compound 0.01 µM) of the same molecule?
The relative viability was 0.48.

And the relative viability (RERF-LC-KJ; first compound 0.03162 µM)?
The relative viability was 0.461.

And the relative viability (RERF-LC-KJ; first compound 0.1 µM)?
The relative viability was 0.441.

And the relative viability (RERF-LC-KJ; first compound 0.3162 µM)?
Its relative viability is 0.399.

What about the relative viability (RERF-LC-KJ; first compound 1 µM) of the same molecule?
Its relative viability is 0.392.

And the relative viability (H3255; first compound 0.01 µM)?
The relative viability was 0.549.

And the relative viability (H3255; first compound 0.03162 µM)?
The relative viability was 0.61.

And the relative viability (H3255; first compound 0.1 µM)?
Its relative viability is 0.573.

And the relative viability (H3255; first compound 0.3162 µM)?
The relative viability was 0.531.

And the relative viability (H3255; first compound 1 µM)?
Its relative viability is 0.477.

And the relative viability (NCI-H2228; first compound 0.01 µM)?
Its relative viability is 0.279.

And the relative viability (NCI-H2228; first compound 0.03162 µM)?
The relative viability was 0.328.

What about the relative viability (NCI-H2228; first compound 0.1 µM) of the same molecule?
Its relative viability is 0.293.

And the relative viability (NCI-H2228; first compound 0.3162 µM)?
Its relative viability is 0.299.

What about the relative viability (NCI-H2228; first compound 1 µM) of the same molecule?
The relative viability was 0.2.

And the relative viability (NCI-H1437; first compound 0.01 µM)?
The relative viability was 0.298.

And the relative viability (NCI-H1437; first compound 0.03162 µM)?
The relative viability was 0.261.

And the relative viability (NCI-H1437; first compound 0.1 µM)?
The relative viability was 0.229.

And the relative viability (NCI-H1437; first compound 0.3162 µM)?
Its relative viability is 0.206.

And the relative viability (NCI-H1437; first compound 1 µM)?
The relative viability was 0.172.

And the relative viability (HCC-15; first compound 0.01 µM)?
Its relative viability is 0.213.

What about the relative viability (HCC-15; first compound 0.03162 µM) of the same molecule?
The relative viability was 0.234.

What about the relative viability (HCC-15; first compound 0.1 µM) of the same molecule?
The relative viability was 0.232.

What about the relative viability (HCC-15; first compound 0.3162 µM) of the same molecule?
The relative viability was 0.209.

And the relative viability (HCC-15; first compound 1 µM)?
Its relative viability is 0.187.

And the relative viability (NCI-H322M; first compound 0.01 µM)?
The relative viability was 0.595.

What about the relative viability (NCI-H322M; first compound 0.03162 µM) of the same molecule?
The relative viability was 0.617.

And the relative viability (NCI-H322M; first compound 0.1 µM)?
The relative viability was 0.571.

And the relative viability (NCI-H322M; first compound 0.3162 µM)?
The relative viability was 0.542.

And the relative viability (NCI-H322M; first compound 1 µM)?
The relative viability was 0.379.
